Where two headings read alike, the source gives them in different places.
Key:
human Src kinase = target: T1, human Src kinase (Homo sapiens, UniProt P12931); test: SRC inhibition assay (radioactivity-based or spectrophotometric assay); type: biochemical; conditions: recombinant human Src kinase, assay A or B
T1 construct: full length recombinant human Src kinase (from Upstate Biotechnology, cat. no. 14-117); purchased Upstate Biotechnology 14-117; host or cells: baculo viral cells
Protocol: The compounds were evaluated as inhibitors of human Src kinase using either a radioactivity-based assay or spectrophotometric assay. The compounds were assayed as inhibitors of full length recombinant human Src kinase (from Upstate Biotechnology, cat. no. 14-117) expressed and purified from baculo viral cells. […] P-0275). […] In a typical assay, all the reaction components with the exception of ATP were pre-mixed and aliquoted into assay plate wells. […] The assay plate was incubated at 30° C. for 10 min before initiating the reaction with ^33P-ATP. After 20 min of reaction, the reactions were quenched with 150 μl of 10% trichloroacetic acid (TCA) containing 20 mM Na3PO4. The quenched samples were then transferred to a 96-well filter plate (Whatman, UNI-Filter GF/F Glass Fiber Filter, cat no. 7700-3310) installed on a filter plate vacuum manifold. Filter plates were washed four times with 10% TCA containing 20 mM Na3PO4 and then 4 times with methanol. 200 μl of scintillation fluid was then added to each well. The plates were sealed and the amount of radioactivity associated with the filters was quantified on a TopCount scintillation counter. The radioactivity incorporated was plotted as a function of the inhibitor concentration. The data was fitted to a competitive inhibition kinetics model to get the Ki for the compound. The ADP produced from ATP by the human recombinant Src kinase-catalyzed phosphorylation of poly Glu-Tyr substrate was quanitified using a coupled enzyme assay (Fox et al (1998) Protein Sci 7, 2249). In this assay one molecule of NADH is oxidised to NAD for every molecule of ADP produced in the kinase reaction. The disappearance of NADH can be conveniently followed at 340 nm. […] In a typical assay, all the reaction components with the exception of ATP were pre-mixed and aliquoted into assay plate wells. […] The absorbance change at 340 nm with time, the rate of the reaction, was monitored on a molecular devices plate reader. The data of rate as a function of the inhibitor concentration was fitted to competitive inhibition kinetics model to get the Ki for the compound.

GSK-3β (AA 1-420) = target: T2, GSK-3β (AA 1-420) (Homo sapiens, UniProt P49841); test: Ki determination for the inhibition of GSK-3 (coupled enzyme system); type: biochemical; conditions: 20 μM ATP, 20 nM GSK-3β, 30° C.
T2 construct: GSK-3β (AA 1-420)
Outline: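 GSK-3β (AA 1-420, 20 nM) was run in a pyruvate kinase/LDH-coupled NADH assay in 100 mM HEPES pH 7.5, 10 mM MgCl2, 25 mM NaCl, 1 mM DTT, 1.5% DMSO, with 300 μM phosphopeptide substrate. Compound (0.002–30 μM) was preincubated 10 min at 30° C, then 20 μM ATP was added.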

Aurora-2 = target: T3, Aurora-2 (Homo sapiens, UniProt O14965); test: Ki determination for the inhibition of Aurora-2 (coupled enzyme assay); type: biochemical; conditions: 70 nM Aurora-2, 30° C.
T3 sequence (O14965 1-403): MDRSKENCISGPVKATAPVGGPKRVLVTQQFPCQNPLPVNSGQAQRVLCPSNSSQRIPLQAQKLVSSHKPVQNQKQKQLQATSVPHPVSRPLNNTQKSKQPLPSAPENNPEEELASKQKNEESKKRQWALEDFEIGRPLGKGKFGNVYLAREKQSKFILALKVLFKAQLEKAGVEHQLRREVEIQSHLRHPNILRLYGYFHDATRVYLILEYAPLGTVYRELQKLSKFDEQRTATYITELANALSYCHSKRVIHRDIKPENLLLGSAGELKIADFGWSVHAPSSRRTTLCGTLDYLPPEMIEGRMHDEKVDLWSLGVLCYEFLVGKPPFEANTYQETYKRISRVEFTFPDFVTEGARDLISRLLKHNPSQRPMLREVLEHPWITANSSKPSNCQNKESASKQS
Outline: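 Ki came from reaction rates plotted against inhibitor concentration, with rates taken as A340 decrease over 5 min at 30° C. Enzyme (70 nM final) was added after 10 min compound preincubation; stock buffer held […], 800 μM LRRASLG, PK/LDH coupling, pH 7.5.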

T1 sequence (P12931 whole entry): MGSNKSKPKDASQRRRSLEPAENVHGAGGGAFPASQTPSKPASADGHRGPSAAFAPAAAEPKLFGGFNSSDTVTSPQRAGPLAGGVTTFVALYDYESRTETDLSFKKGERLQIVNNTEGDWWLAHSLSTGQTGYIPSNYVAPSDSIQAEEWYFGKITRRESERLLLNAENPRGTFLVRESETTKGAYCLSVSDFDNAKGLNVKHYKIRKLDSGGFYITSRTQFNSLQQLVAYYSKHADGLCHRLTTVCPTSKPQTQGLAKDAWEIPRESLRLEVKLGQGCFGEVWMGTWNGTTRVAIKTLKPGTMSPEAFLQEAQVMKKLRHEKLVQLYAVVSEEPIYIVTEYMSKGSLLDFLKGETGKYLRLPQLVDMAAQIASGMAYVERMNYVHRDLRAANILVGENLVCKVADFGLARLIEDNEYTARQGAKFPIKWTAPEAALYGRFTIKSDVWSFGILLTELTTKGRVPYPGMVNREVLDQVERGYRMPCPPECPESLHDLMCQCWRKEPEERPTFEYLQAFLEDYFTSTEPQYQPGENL
T2 sequence (P49841 whole entry, the tested form may be a part): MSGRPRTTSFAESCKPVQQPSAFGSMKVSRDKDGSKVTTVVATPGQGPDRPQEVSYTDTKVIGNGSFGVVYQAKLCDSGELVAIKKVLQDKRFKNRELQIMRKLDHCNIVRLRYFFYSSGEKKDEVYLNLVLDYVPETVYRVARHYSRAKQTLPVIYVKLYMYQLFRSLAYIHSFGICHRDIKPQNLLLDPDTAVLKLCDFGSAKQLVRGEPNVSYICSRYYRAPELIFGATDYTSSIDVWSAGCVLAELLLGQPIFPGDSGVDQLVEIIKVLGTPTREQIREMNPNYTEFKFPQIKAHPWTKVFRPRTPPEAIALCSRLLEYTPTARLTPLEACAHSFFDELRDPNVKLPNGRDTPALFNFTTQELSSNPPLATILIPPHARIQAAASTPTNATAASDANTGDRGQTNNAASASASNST

| Structure (SMILES) | Ki (human Src kinase; read-out: Ki value on SRC) | melting point | Ki (GSK-3β (AA 1-420)) | Ki (Aurora-2) | Ki (human Src kinase; read-out: Ki value for SRC) |
| --- | --- | --- | --- | --- | --- |
| c1ccc(Sc2nc(Nc3cc(C4CC4)[nH]n3)c3ccccc3n2)cc1 [IIa-21, (5-Cyclopropyl-2H-pyrazol-3-yl)-(2-phenylsulfanyl-quinazolin-4-yl)-amine] | < 0.1 µM | 233 to 236 °C | < 0.1 µM | < 0.1 µM | – |
| Cc1cc(Nc2nc(Nc3ccc(NC(=O)C(C)C)cc3)nc3ccccc23)n[nH]1 [IIc-68, [2-(4-Isobutyrylamino-phenylamino)-quinazolin-4-yl]-(5-methyl-2H-pyrazol-3-yl)-amine] | – | 176 to 179 °C | 1 to 7 µM | < 0.1 µM | 1 to 6 µM |
| Cc1cc(Nc2nc(Sc3ccc(NS(=O)(=O)C(C)C)cc3)nc3ccccc23)n[nH]1 [IIa-48, [2-(4-Isopropanesulfonylamino-phenylsulfanyl)-quinazolin-4-yl]-(5-methyl-2H-pyrazol-3-yl)-amine] | – | 294 to 297 °C | 0.1 to 1 µM | < 0.1 µM | 1 to 6 µM |
| Cc1ccc(Cl)c(Nc2nc(Nc3cc(C)[nH]n3)c3ccccc3n2)c1 [IIc-51, [2-(2-Chloro-5-methylphenylamino)-quinazolin-4-yl]-(5-methyl-2H-pyrazol-3-yl)-amine] | < 0.1 µM | 246 to 247 °C | 0.1 to 1 µM | < 0.1 µM | – |
| c1csc(CNc2nc(Nc3cc(C4CC4)[nH]n3)c3ccccc3n2)c1 [IIc-35, (5-Cyclopropyl-2H-pyrazol-3-yl)-[2-(thiophen-2-methylamino)-quinazolin-4-yl]-amine] | < 0.1 µM | 212 °C | < 0.1 µM | < 0.1 µM | – |
| Cc1cc(Nc2nc(Sc3ccc(NC(=O)CN(C)C)cc3)nc3ccccc23)n[nH]1 [IIa-68, {2-[4-(2-Dimethylamino-acetylamino)-phenylsulfanyl]-quinazolin-4-yl}-(5-methyl-2H-pyrazol-3-yl)-amine] | – | 241 to 243 °C | 1 to 7 µM | < 0.1 µM | 1 to 6 µM |
| Cc1cc(Nc2nc(Nc3ccc(N)cc3)nc3ccccc23)n[nH]1 [IIc-66, [2-(4-Aminophenylamino)-quinazolin-4-yl]-(5-methyl-2H-pyrazol-3-yl)-amine] | – | 164 to 167 °C | 0.1 to 1 µM | 0.1 to 1 µM | 1 to 6 µM |
| Fc1ccc(Sc2nc(Nc3cc(C4CC4)[nH]n3)c3ccccc3n2)c(F)c1 [IIa-28, (5-Cyclopropyl-2H-pyrazol-3-yl)-[2-(2,4-difluorophenylsulfanyl)-quinazolin-4-yl]-amine] | < 0.1 µM | 250 to 253 °C | < 0.1 µM | < 0.1 µM | – |
| CC(=O)Nc1ccc(Sc2nc(Nc3cc(C)n[nH]3)c3ccc(OCCCN4CCOCC4)cc3n2)cc1 [IIa-45, [2-(4-Acetamidophenylsulfanyl)-7-(3-morpholin-4-yl-propoxy)-quinazolin-4-yl]-(5-methyl-2H-pyrazol-3-yl)-amine] | – | 153 °C (dec.) | 1 to 7 µM | < 0.1 µM | 1 to 6 µM |
| CCS(=O)(=O)Nc1ccc(Sc2nc(Nc3cc(C)[nH]n3)c3ccccc3n2)cc1 [IIa-55, [2-(4-Ethylsulfonylamino-phenylsulfanyl)-quinazolin-4-yl]-(5-methyl-2H-pyrazol-3-yl)-amine] | – | 279 to 280 °C | 0.1 to 1 µM | < 0.1 µM | 1 to 6 µM |
| c1ccc(OCCNc2nc(Nc3cc(C4CC4)[nH]n3)c3ccccc3n2)cc1 [IIc-34, (5-Cyclopropyl-2H-pyrazol-3-yl)-[2-(2-phenoxyethylamino)-quinazolin-4-yl]-amine] | < 0.1 µM | 203 °C | 0.1 to 1 µM | < 0.1 µM | – |
| Clc1cccc(Sc2nc(Nc3cc(C4CC4)[nH]n3)c3ccccc3n2)c1 [IIa-31, [2-(3-Chlorophenylsulfanyl)-quinazolin-4-yl]-(5-cyclopropyl-2H-pyrazol-3-yl)-amine] | < 0.1 µM | 235 to 238 °C | < 0.1 µM | < 0.1 µM | – |

Now from value to molecule:

| Ki (human Src kinase; read-out: Ki value on SRC) | melting point | Ki (GSK-3β (AA 1-420)) | Ki (Aurora-2) | Ki (human Src kinase; read-out: Ki value for SRC) | Structure (SMILES) |
| --- | --- | --- | --- | --- | --- |
| < 0.1 µM | 186 to 188 °C | 0.1 to 1 µM | < 0.1 µM | – | CCc1cccc(Nc2nc(Nc3cc(C4CC4)[nH]n3)c3ccccc3n2)c1 [IIc-41, (5-Cyclopropyl-2H-pyrazol-3-yl)-[2-(3-ethylphenylamino)-quinazolin-4-yl]-amine] |
| < 0.1 µM | > 188 °C (dec.) | 0.1 to 1 µM | < 0.1 µM | – | CC(=O)Nc1ccc(Nc2nc(Nc3cc(C4CC4)[nH]n3)c3ccccc3n2)cc1C [IIc-23, [2-(4-Acetamido-3-methylphenylamino)-quinazolin-4-yl]-(5-cyclopropyl-2H-pyrazol-3-yl)-amine] |
| < 0.1 µM | 244 to 246 °C | < 0.1 µM | < 0.1 µM | – | Cc1cc(Nc2nc(Nc3cc(C4CC4)[nH]n3)c3ccccc3n2)ccc1Cl [IIc-24, [2-(4-Chloro-3-methylphenylamino)-quinazolin-4-yl]-(5-cyclopropyl-2H-pyrazol-3-yl)-amine] |
| < 0.1 µM | 199 to 204 °C | < 0.1 µM | < 0.1 µM | – | c1ccc2c(Nc3cc(C4CC4)[nH]n3)nc(Nc3ccc4c(c3)CCC4)nc2c1 [IIc-21, (5-Cyclopropyl-2H-pyrazol-3-yl)-[2-(indan-5-ylamino)-quinazolin-4-yl]-amine] |
| < 0.1 µM | 117 °C | 0.1 to 1 µM | < 0.1 µM | – | Cc1cccc(Nc2nc(Nc3cc(C4CC4)[nH]n3)c3ccccc3n2)c1 [IIc-19, (5-Cyclopropyl-2H-pyrazol-3-yl)-[2-(3-methylphenylamino)-quinazolin-4-yl]-amine] |
| < 0.1 µM | 207 to 211 °C | 0.1 to 1 µM | < 0.1 µM | – | COc1cccc(Nc2nc(Nc3cc(C4CC4)[nH]n3)c3ccccc3n2)c1 [IIc-44, (5-Cyclopropyl-2H-pyrazol-3-yl)-[2-(3-methoxyphenylamino)-quinazolin-4-yl]-amine] |
| < 0.1 µM | 283 to 284 °C | < 0.1 µM | < 0.1 µM | – | Cc1cccc(Oc2nc(Nc3cc(C4CC4)[nH]n3)c3ccccc3n2)c1 [IIb-5, (5-Cyclopropyl-2H-pyrazol-3-yl)-[2-(3-methylphenoxy)-quinazolin-4-yl]-amine] |

From US6653300B2, “Pyrazole compounds useful as protein kinase inhibitors” (Vertex Pharmaceuticals Incorporated, priority 2000, dated 2003)
